Patent publication US10450549B2, “Aryloxyphenoxypropionate tolerance in turfrgass species and use of AAD1 as a selectable marker” (Dow AgroSciences, LLC, priority 2004, dated 2019)
Where “and” joins values, the source holds several entries; their conditions need not be identical. Equal values may be shown once.

Experiments:
[1] = tested on: AAD1 (v2)-transformed T1 Arabidopsis; assay: T1 Arabidopsis response to postemergence herbicide, % visual injury 2 WAT: native AAD1 (v2) transformants; format: in vivo, Arabidopsis thaliana; settings: for % Injury Ave / individuals with 20-40% injury / individuals with <20% injury / individuals with >40% injury: Native AAD1 (v2) gene, 2 WAT
Procedure: Freshly harvested T1 seed (transformed with native [AAD1 (v2)] or plant optimized [AAD1 (v3)] gene) was allowed to dry for 7 days at room temperature. T1 seed was sown in 26.5×51-cm germination trays (T.O. Plastics Inc., Clearwater, Minn.), each receiving a 200 mg aliquots of stratified T1 seed (˜10,000 seed) that had previously been suspended in 40 ml of 0.1% agarose solution and stored at 4° C. for 2 days to complete dormancy requirements and ensure synchronous seed germination.
Sunshine Mix LP5 (Sun Gro Horticulture Inc., Bellevue, Wash.) was covered with fine vermiculite and subirrigated with Hoagland's solution until wet, then allowed to gravity drain. Each 40 ml aliquot of stratified seed was sown evenly onto the vermiculite with a pipette and covered with humidity domes (KORD Products, Bramalea, Ontario, Canada) for 4-5 days. Domes were removed 1 day prior to initial transformant selection using glufosinate postemergence spray (selecting for the co-transformed PAT gene).
Five to six days after planting (DAP) and again 10 DAP, T1 plants (cotyledon and 2-4-1f stage, respectively) were sprayed with a 0.2% solution of Liberty herbicide (200 g ai/L glufosinate, Bayer Crop Sciences, Kansas City, Mo.) at a spray volume of 10 ml/tray (703 L/ha) using a DeVilbiss compressed air spray tip to deliver an effective rate of 280 g ai/ha glufosinate per application. Survivors (plants actively growing) were identified 5-7 days after the final spraying and transplanted individually into 3-inch pots prepared with potting media (Metro Mix 360). Transplanted plants were covered with humidity domes for 3-4 days and placed in a 22° C. growth chamber as before. Domes were subsequently removed and plants moved to the greenhouse (22+5° C., 50+30% RH, 14 h light:10 dark, minimum 500 μE/m^2s^1 natural+supplemental light) at least 1 day prior to testing for the ability of AAD1 (v3) (plant optimized gene) or AAD1 (v2) (native microbial gene) to provide phenoxy auxin herbicide resistance.
Random individual T1 plants selected for glufosinate resistance above were confirmed for expression of the PAT protein using a PAT ELISA kit (Part no. 7000045, Strategic Diagnostics, Inc., Newark, Del.) to non-destructively confirm fidelity of selection process (manufacturer's protocol). Plants were then randomly assigned to various rates of phenoxy herbicides (dichlorprop or 2,4-D). […] Elevated rates were applied in subsequent trials (50, 200, 800, or 3200 g ae/ha).
All auxin herbicide applications were made using the DeVilbiss sprayer as described above to apply 703 L/ha spray volume (0.4 ml solution/3-inch pot) or applied by track sprayer in a 187 L/ha spray volume. […] Dichlorprop used was technical grade (Sigma, St. Louis, Mo.) dissolved in DMSO and diluted in water (<1% DMSO final concentration). As herbicide rates increased beyond 800 g ae/ha, the pH of the spray solution became exceedingly acidic, burning the leaves of young, tender Arabidopsis plants and complicating evaluation of the primary effects of the herbicides. It became standard practice to apply these high rates of phenoxy herbicides in 200 mM Tris buffer (pH 9.0) to a final pH of ˜7-8.
Table 16. […] Response is presented in terms of % visual injury 2 WAT. […] Since each T1 is an independent transformation event, one can expect significant variation of individual T1 responses within a given rate. An arithmetic mean and standard deviation is presented for each treatment. The range in individual response is also indicated in the last column for each rate and transformation. PAT/Cry1F-transformed Arabidopsis served as an auxin-sensitive transformed control. Wildtype Arabidopsis is untransformed.

[2] = tested on: T2 lineages from 3404 transformations; assay: Quizalofop tolerance with respect to AAD1 (v3) expression in T2 3404 lineages; format: in vivo, corn
[3] = tested on: AAD1-transformed T0 2095-2 creeping bentgrass events; assay: Quizalofop-p-ethyl postemergence on AAD1 (pDAB5042) creeping bentgrass line 2095-2; format: in vivo, Agrostis stolonifera
Procedure: Selected T0 plants were sprayed with quizalofop-p-ethyl (Assure II®, DUPONT, Wilmington, Del.) at rates ranging from 60 to 2,240 g ae/ha. […] This rate also controls susceptible monocot weed species. Measured amounts were placed individually in 25 mL glass vials and dissolved in a 4 mL volume of 1.0% (v/v) Agri-Dex® Crop Oil Concentrate (COC) from HELENA CHEMICAL (Collierville, Tenn.). Application solutions were prepared by serial dilution of the highest rate applied. One-half the volume of the highest rate stock solution (2 mL) was transferred to a clean 25 mL vial containing an equal volume of 1% COC and the diluted solution was mixed. Additional dilutions were prepared similarly by removing one-half the volume of the previous concentration (2 mL), and adding to an equal volume of 1% COC and mixing. When preparing the lowest concentration, the remaining one-half volume was discarded. All 2 mL stock solutions were further diluted by adding 10 mL aqueous mixture of 1.0% (v/v) COC, so that the final spray solutions were 12 mL in volume and contained 1.0% (v/v) COC.
Spray solutions were applied to the plant material with an overhead Mandel™ track sprayer equipped with a 8002E nozzles calibrated to deliver 187 L/ha over an application area of 0.503 square meters (m^2) at a spray height of 18 inches (46 cm) above average plant canopy height. Control plants were sprayed in the same manner with the COC blank.
The treated plants and control plants were placed in a greenhouse, and watered by sub-irrigation to prevent wash-off of the test compounds. At various times after application, the condition of the test plants as compared with that of the untreated plants was determined visually and scored on a scale of 0 to 100 percent (where 0 corresponds to no injury or growth inhibition and 100 corresponds to complete kill). Regenerated, non-transformed (NT) ‘Crenshaw’ or elite line 2905-2 creeping bentgrass plants and/or seed-derived clonally propagated plants served as quizalofop sensitive controls. […]

Row | SMILES | T1 plants surviving uninjured (<20% visual injury) ([1]; AAD1 (v2), 200 g ae/ha) | % Injury Ave ([1]; 50 g ae/ha) | individuals with 20-40% injury ([1]; 50 g ae/ha) | individuals with <20% injury ([1]; 50 g ae/ha) | individuals with >40% injury ([1]; 50 g ae/ha) | % Injury Ave ([1]; 200 g ae/ha) | individuals with 20-40% injury ([1]; 200 g ae/ha) | individuals with <20% injury ([1]; 200 g ae/ha) | individuals with >40% injury ([1]; 200 g ae/ha) | % Injury Ave ([1]; 800 g ae/ha) | individuals with 20-40% injury ([1]; 800 g ae/ha) | individuals with <20% injury ([1]; 800 g ae/ha) | individuals with >40% injury ([1]; 800 g ae/ha) | highest level tested at which corn expressing AAD1 (v3) is protected from injury [2] | mean injury, pDAB5042 2095-2 events ([3]; 120, 480 and 960 g ae/ha, 22 to 50 DAA) | injury of 48 of the 53 individual 2095-2 events ([3]; 120 g ae/ha) | injury of four 2095-2 events ([3]; 120 g ae/ha)
1 | O=C(O)COc1ccc(Cl)cc1Cl [2,4-D, 2,4-dichlorophenoxyacetic acid] | 56% | 14.8% | 16 | 55 | 9 | 34% and 34.1% | 11 | 45 | 24 | 52.5% | 32 | 11 | 37 |  |  |  | 
2 | C[C@@H](Oc1ccc(Oc2cnc3cc(Cl)ccc3n2)cc1)C(=O)O [quizalofop] |  |  |  |  |  |  |  |  |  |  |  |  |  | 2,240 g/ha | less than 25% | ≤ 20% | between about 25% and 35% injury
